Calls of active or inactive are those of the source.
What was measured:
[1] = biological target: Alkaline phosphatase, placental type (Homo sapiens, UniProt P05187); assay: human placental alkaline phosphatase inhibition – biochemical, luminescence, confirmation (AID 1512); type: functional
[2] = biological target: T1, RNA-binding protein pos-1 (Caenorhabditis elegans, UniProt G5EF15); assay: disruptors of C. elegans POS-1 RNA interaction – biochemical, fluorescence polarization, dose response (AID 1964);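 note: purified POS-1 fused to maltose binding protein made in E. coli; potency of compounds blocking POS-1 binding to fluorescent RNA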
T1 sequence (G5EF15 whole entry): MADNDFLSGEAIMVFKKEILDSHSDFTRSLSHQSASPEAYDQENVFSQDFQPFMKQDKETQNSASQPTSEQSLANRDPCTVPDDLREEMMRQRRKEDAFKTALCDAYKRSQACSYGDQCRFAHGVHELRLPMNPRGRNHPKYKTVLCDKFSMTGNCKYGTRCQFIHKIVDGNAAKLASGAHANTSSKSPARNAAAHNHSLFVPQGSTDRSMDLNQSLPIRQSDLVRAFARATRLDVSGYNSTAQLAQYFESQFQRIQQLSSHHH

[3] = biological target: T2, Zinc finger protein mex-5 (Caenorhabditis elegans, UniProt Q9XUB2); assay: potency of MEX-5 RNA-binding blockers – biochemical, C. elegans, fluorescence polarization, dose response (AID 1960)
T2 sequence (Q9XUB2 whole entry): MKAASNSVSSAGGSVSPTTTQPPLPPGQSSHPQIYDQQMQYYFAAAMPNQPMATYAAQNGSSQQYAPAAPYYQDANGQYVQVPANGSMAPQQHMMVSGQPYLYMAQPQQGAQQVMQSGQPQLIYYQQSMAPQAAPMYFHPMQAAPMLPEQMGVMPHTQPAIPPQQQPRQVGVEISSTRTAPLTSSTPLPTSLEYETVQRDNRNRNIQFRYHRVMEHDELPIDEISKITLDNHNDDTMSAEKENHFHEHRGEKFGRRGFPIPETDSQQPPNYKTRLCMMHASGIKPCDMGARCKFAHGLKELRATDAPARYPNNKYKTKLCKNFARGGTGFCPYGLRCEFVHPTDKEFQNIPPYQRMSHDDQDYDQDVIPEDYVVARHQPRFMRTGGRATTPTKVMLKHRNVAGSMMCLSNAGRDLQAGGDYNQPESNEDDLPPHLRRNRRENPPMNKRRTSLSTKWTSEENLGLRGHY

[4] = biological target: T3, Protein RecA (Mycobacterium tuberculosis, UniProt P9WHJ3); assay: Fluorescence Cell-Free Homogeneous Dose Retest to Identify Inhibitors of RecA-Intein Splicing Activity. [Related pubchem assays (depositor defined):AID2097, AID2223, AID489010, AID492950]; type: functional
T3 sequence (P9WHJ3 whole entry): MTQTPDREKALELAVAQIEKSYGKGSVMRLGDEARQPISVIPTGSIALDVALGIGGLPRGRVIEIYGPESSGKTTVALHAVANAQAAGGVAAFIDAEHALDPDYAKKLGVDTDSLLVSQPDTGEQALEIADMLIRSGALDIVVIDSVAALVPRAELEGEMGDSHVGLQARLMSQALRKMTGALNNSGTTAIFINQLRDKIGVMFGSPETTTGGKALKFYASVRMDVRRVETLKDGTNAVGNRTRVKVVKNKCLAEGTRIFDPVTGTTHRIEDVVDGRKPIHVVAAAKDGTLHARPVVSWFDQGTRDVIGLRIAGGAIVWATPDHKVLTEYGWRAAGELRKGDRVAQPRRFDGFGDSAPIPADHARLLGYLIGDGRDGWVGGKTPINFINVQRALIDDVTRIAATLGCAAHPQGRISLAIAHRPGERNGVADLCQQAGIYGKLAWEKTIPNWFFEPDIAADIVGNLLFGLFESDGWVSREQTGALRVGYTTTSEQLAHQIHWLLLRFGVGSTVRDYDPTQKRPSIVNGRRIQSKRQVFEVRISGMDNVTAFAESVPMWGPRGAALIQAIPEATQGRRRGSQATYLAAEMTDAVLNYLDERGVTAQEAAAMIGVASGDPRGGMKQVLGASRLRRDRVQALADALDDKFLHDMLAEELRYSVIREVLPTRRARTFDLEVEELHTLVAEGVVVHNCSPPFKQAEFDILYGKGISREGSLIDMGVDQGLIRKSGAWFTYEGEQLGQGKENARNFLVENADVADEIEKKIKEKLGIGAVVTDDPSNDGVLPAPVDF

[5] = biological target: T4, Replicative DNA helicase DnaB (Mycobacterium tuberculosis, UniProt P9WMR3); assay: DnaB intein splicing inhibitors, dose response, biochemical, cell-free fluorescence (AID 449749); type: functional
T4 sequence (P9WMR3 whole entry): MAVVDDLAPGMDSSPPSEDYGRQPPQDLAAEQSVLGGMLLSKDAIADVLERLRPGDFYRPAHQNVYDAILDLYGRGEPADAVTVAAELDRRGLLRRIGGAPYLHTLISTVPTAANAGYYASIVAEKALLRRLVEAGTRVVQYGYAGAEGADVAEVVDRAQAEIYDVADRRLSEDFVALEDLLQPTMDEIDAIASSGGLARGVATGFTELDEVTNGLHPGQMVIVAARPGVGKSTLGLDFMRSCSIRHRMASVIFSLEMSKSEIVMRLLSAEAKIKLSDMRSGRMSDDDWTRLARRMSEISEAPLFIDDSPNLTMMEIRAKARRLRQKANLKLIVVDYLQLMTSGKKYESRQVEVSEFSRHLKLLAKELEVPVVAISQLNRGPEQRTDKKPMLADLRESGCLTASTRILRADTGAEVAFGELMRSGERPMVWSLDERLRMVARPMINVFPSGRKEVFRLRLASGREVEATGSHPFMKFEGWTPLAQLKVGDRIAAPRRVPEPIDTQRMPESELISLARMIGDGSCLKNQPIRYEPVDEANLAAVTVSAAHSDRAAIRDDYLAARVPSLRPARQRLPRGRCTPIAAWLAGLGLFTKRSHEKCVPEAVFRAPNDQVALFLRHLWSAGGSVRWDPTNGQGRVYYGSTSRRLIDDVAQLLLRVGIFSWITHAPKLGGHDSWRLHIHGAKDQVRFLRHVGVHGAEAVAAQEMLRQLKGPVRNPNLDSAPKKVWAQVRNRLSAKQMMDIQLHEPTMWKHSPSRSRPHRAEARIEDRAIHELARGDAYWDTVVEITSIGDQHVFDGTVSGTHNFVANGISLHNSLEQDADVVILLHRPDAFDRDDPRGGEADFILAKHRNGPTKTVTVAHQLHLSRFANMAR

[6] = Intein inhibitors as potential Tuberculosis drugs, a cytotoxicity screen. [Related pubchem assays (depositor defined):AID2221, AID2223, AID434968, AID435010, AID449749, AID449750, AID489010]; type: functional
[7] = system: T-cell; assay: loss of vesicle association with mouse CD8+ T cells – mouse 2C CD8+ T cells, flow cytometry, dose response (AID 485284); type: functional
[8] = luciferase reporter signal suppression in cells – H4 neuroglioma cells, luminescence, dose response (AID 1990); type: functional, cell-based
[9] = biological target: T5, Delta-type opioid receptor (Homo sapiens, UniProt P41143); assay: HTS Image-Based Screen for Agonists of the DOR Receptor. [Related pubchem assays (depositor defined):AID1777, AID1786, AID2133]; type: functional
[10] = biological target: T6, Kappa-type opioid receptor (Homo sapiens, UniProt P41145); type: functional
[11] = biological target: T7, G-protein coupled receptor 35 (Homo sapiens, UniProt Q9HC97); assay: inhibition of zaprinast-stimulated GPR35 beta-arrestin translocation – imaging, U2OS, beta-arrestin-GFP, zaprinast agonist, primary screen (AID 2058); type: functional;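 note: antagonist potency meaning inhibition of agonist-induced arrestin redistribution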
[12] = biological target: T8, Mu-type opioid receptor (Homo sapiens, UniProt P35372); assay: HTS Image-Based Screen for Agonists of the MOR Receptor. [Related pubchem assays (depositor defined):AID1777, AID1785, AID1786, AID2133]; type: functional
[13] = biological target: T5, Delta-type opioid receptor; assay: HTS Image-Based Screen for Antagonists of the DOR Receptor. [Related pubchem assays (depositor defined):AID1777, AID1785, AID1786, AID2133]; type: functional
[14] = biological target: Beta-galactosidase (Escherichia coli, UniProt Q8VNN2); type: functional
[15] = Luminescence Cell-Based Dose Response HTS to Identify Inhibitors of 5'UTR Stem-Loop Driven Prion Protein mRNA Translation in H4 Neuroglioblastoma Cells. [Related pubchem assays: 1827 (Project Summary), 1813 (Primary HTS)]; type: functional
[16] = biological target: T9, G-protein coupled receptor 55 (Homo sapiens, UniProt Q9Y2T6); assay: inhibition of LPI-stimulated GPR55 beta-arrestin translocation – imaging, U2OS, beta-arrestin-GFP, LPI agonist, primary screen (AID 2013); type: functional;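 note: antagonist potency measured as reduced agonist-driven arrestin aggregation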
[17] = biological target: T6, Kappa-type opioid receptor; type: functional; remark: listed apart in the source
[18] = alpha-synuclein stem-loop luciferase translation blockers – H4 neuroglioma cells, luminescence, confirmation (AID 1988); type: functional, cell-based
[19] = biological target: E3 ubiquitin-protein ligase Mdm2 (Homo sapiens, UniProt Q00987); assay: MDM2-luc reporter signal enhancers, multi-concentration potency testing, MDM2 ubiquitin-protein ligase inhibitor program, whole-cell format, luminescence detection, 384-well microplate (AID 1394); type: functional;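 note: MDM2 E3 inhibitors raise luminescence so EC50 is for signal enhancement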
[20] = biological target: T5, Delta-type opioid receptor; assay: SAR Analysis of Antagonists of the DOR Receptor using an Image-Based Assay - Set 3. [Related pubchem assays (depositor defined):AID1777, AID1785]; type: functional
[21] = biological target: T6, Kappa-type opioid receptor; assay: SAR analysis of small molecule antagonists of the kappa opioid receptor via a luminescent beta-arrestin assay - Set 3. [Related pubchem assays (depositor defined):AID1777, AID1778, AID1785, AID1786, AID1966, AID2133, AID2136, AID2285, AID2495]; type: functional
[22] = biological target: T8, Mu-type opioid receptor; assay: SAR Analysis of Antagonists of the MOR Receptor using an Image-Based Assay - Set 3. [Related pubchem assays (depositor defined):AID1777, AID1785, AID1786, AID1966, AID2133, AID2136, AID2284, AID2285, AID2420]; type: functional
[23] = biological target: T6, Kappa-type opioid receptor; assay: SAR analysis of Antagonists of the Kappa Opioid Receptor (KOR) using an Image-Based Assay - Set 3. [Related pubchem assays (depositor defined):AID1777, AID1785]; type: functional
[24] = biological target: T7, G-protein coupled receptor 35; assay: SAR analysis of Agonists of the GPR35 Receptor using an Image-Based Assay - Set 3. [Related pubchem assays (depositor defined):AID1961, AID1965]; type: functional
[25] = biological target: T9, G-protein coupled receptor 55; assay: SAR analysis of selective Agonists of GPR55 using an Image-Based Assay - Set 2. [Related pubchem assays (depositor defined):AID1961, AID1965]; type: functional
[26] = biological target: T7, G-protein coupled receptor 35; assay: SAR analysis of Antagonists of the GPR35 Receptor using an Image-Based Assay - Set 4. [Related pubchem assays (depositor defined):[…]]; type: functional
[27] = biological target: T10, Cannabinoid receptor 1 (Homo sapiens, UniProt P21554); assay: SAR analysis of antagonists of the Cannabinoid Receptor 1 using an Image-Based Assay - Set 3. [Related pubchem assays (depositor defined):AID1961, AID1965]; type: functional
[28] = biological target: T11, Cannabinoid receptor 2 (Homo sapiens, UniProt P34972); assay: SAR analysis of antagonists of the Cannabinoid Receptor 2 using an Image-Based Assay - Set 2. [Related pubchem assays (depositor defined):AID1961, AID1965]; type: functional
[29] = biological target: T11, Cannabinoid receptor 2; assay: SAR analysis of agonists of the Cannabinoid Receptor 2 using an Image-Based Assay - Set 2. [Related pubchem assays (depositor defined):AID1961, AID1965]; type: functional
[30] = biological target: T10, Cannabinoid receptor 1; assay: SAR analysis of agonists of the Cannabinoid Receptor 1 using an Image-Based Assay - Set 3. [Related pubchem assays (depositor defined):AID1961, AID1965]; type: functional
[31] = biological target: Large T antigen (Simian virus 40, UniProt P03070); type: functional, Betapolyomavirus macacae;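 note: Confirmatory-stage PubChem screen for compounds that inhibit SV40 T antigen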
[32] = biological target: T12, Voltage-gated N-type calcium channel alpha-1B subunit/Amyloid beta A4 precursor protein-binding family A member 1 (Homo sapiens, UniProt Q00975+Q02410); type: protein assay
[33] = biological target: T12, Voltage-gated N-type calcium channel alpha-1B subunit/Amyloid beta A4 precursor protein-binding family A member 1; type: protein assay; remark: listed apart in the source
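Throughout, for CC50: cells exposed to compound for 72 hours before luminescence readout.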

T7 sequence (Q9HC97 whole entry): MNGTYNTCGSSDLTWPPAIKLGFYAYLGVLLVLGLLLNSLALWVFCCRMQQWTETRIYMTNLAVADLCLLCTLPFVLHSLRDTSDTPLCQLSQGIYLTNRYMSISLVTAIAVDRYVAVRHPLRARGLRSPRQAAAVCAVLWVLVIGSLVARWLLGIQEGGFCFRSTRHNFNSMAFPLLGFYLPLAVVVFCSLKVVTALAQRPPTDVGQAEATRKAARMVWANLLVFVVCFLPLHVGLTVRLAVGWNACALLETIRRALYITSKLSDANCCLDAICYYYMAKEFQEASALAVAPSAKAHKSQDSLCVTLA
T6 sequence (P41145 whole entry): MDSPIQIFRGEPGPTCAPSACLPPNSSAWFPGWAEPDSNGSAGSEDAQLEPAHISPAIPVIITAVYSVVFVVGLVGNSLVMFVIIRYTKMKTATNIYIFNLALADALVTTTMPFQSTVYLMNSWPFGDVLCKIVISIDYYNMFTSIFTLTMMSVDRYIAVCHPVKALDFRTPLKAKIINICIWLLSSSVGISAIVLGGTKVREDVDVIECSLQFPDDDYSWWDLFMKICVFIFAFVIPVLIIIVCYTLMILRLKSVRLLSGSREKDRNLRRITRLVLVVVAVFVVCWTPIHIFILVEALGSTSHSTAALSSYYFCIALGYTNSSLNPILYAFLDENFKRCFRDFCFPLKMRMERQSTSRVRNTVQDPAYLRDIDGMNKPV
T5 sequence (P41143 whole entry): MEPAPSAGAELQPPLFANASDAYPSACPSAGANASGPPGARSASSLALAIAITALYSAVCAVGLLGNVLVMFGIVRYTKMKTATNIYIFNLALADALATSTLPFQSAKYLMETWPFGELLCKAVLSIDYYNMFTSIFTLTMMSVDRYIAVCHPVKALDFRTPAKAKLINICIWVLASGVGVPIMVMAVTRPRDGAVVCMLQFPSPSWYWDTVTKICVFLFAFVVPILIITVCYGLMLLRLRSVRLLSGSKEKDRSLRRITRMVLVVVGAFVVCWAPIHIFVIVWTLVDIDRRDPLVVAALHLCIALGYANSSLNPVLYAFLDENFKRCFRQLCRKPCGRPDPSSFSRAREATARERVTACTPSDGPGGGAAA
T9 sequence (Q9Y2T6 whole entry): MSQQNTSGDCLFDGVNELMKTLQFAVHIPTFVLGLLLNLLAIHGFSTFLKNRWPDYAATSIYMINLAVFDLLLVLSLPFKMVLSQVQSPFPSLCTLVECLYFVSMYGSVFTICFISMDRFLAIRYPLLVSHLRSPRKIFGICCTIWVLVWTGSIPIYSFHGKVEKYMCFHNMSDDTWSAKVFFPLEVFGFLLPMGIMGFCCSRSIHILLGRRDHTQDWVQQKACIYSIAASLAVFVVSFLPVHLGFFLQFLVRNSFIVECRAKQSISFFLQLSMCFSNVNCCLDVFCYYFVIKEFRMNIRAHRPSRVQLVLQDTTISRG
T12 sequence (Q00975 whole entry): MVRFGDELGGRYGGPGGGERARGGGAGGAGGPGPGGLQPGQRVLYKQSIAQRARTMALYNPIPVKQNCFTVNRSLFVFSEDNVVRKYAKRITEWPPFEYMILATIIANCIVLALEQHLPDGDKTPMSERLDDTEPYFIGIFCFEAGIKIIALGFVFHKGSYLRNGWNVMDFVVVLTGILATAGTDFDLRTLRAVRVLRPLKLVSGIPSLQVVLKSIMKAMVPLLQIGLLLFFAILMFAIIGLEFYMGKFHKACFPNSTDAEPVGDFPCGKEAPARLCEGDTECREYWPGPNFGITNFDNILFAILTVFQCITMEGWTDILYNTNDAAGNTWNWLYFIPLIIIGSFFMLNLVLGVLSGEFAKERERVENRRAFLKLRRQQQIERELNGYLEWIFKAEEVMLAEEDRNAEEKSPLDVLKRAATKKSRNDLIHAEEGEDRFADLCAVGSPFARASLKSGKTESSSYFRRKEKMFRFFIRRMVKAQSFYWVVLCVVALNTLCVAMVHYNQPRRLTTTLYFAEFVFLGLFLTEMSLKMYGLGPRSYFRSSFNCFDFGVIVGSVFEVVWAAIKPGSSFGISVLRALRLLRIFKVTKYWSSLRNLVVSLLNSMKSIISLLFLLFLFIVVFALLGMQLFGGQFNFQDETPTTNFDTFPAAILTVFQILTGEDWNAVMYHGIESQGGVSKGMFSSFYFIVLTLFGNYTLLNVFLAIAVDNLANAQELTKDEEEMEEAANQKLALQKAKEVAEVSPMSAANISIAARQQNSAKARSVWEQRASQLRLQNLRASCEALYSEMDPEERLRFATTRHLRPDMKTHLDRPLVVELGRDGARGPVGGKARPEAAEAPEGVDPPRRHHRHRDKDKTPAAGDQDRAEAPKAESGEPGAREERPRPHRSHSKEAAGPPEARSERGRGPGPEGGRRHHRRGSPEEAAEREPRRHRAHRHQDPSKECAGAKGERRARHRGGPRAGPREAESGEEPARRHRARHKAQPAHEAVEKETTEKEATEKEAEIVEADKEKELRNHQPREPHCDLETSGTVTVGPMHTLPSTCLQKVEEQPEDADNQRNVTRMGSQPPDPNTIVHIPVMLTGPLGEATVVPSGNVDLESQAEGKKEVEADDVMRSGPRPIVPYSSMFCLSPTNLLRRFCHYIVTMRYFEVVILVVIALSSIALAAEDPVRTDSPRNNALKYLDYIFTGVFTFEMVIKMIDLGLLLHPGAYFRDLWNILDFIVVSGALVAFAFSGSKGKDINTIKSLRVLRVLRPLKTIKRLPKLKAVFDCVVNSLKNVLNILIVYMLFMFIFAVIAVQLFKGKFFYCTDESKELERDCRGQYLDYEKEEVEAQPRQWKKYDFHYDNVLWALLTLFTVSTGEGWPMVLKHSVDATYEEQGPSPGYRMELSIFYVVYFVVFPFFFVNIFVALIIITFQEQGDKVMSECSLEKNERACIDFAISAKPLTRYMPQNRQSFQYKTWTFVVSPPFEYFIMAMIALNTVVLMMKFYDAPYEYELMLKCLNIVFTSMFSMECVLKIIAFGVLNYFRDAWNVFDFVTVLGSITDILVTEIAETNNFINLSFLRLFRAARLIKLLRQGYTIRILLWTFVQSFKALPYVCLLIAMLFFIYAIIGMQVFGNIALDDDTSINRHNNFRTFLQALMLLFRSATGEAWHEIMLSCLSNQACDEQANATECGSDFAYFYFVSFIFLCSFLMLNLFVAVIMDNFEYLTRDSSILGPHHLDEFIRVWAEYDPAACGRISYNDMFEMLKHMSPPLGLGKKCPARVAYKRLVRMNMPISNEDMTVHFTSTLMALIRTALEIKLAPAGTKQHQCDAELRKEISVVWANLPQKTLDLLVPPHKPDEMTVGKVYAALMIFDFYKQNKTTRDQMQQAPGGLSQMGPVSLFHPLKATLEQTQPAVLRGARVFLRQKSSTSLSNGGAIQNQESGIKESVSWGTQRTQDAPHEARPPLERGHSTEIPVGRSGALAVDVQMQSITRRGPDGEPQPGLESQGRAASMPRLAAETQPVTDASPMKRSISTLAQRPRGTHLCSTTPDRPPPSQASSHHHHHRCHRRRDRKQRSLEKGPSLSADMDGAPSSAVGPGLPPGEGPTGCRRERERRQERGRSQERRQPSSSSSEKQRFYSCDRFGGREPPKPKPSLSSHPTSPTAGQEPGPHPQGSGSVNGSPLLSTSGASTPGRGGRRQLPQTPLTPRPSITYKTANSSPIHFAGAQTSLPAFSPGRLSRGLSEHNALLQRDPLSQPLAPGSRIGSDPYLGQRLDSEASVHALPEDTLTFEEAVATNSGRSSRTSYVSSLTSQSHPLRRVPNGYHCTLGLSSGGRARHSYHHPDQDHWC
T12 sequence (Q02410 whole entry): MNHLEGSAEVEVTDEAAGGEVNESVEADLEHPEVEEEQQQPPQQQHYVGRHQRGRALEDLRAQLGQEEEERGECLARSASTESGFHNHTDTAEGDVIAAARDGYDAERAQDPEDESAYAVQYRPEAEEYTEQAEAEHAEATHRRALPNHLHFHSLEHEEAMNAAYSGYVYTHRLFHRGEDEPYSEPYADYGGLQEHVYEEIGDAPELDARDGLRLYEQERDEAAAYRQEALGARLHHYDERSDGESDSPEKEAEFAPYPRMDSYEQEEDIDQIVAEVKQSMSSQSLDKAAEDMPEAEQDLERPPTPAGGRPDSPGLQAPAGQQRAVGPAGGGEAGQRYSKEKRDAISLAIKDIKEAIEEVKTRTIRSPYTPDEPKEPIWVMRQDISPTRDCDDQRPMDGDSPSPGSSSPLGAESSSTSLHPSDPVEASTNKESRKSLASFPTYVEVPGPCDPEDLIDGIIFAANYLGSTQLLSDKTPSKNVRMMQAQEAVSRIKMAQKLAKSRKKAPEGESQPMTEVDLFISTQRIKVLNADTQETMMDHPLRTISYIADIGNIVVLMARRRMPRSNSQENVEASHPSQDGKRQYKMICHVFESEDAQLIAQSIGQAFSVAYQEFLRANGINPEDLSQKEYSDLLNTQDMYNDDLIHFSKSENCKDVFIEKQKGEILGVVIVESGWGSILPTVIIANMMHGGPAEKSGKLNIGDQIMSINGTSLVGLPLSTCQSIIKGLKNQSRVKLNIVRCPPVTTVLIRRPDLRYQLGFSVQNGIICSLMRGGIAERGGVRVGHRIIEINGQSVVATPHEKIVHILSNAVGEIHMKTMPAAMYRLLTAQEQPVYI
T11 sequence (P34972 whole entry): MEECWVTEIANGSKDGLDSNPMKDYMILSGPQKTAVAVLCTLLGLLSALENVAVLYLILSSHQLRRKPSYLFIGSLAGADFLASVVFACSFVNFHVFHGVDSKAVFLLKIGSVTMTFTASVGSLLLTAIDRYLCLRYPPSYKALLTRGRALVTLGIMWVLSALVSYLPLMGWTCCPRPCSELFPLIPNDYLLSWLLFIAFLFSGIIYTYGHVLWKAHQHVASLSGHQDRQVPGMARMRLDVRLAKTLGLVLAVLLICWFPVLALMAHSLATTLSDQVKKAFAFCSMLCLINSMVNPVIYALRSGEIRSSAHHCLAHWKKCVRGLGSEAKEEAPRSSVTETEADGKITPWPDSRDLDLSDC

## COCCNC(=O)CCC(=O)NNc1nc2ccccc2c2nc(C)nn12
[1]
  IC50: > 100 µM (inactive)
[2]
  EC50: 118 µM (active)
[3]
  EC50: 1.21 µM (active)

## O=C(CCl)N1c2ccccc2OCC1c1ccccc1 (stereo not given)
[4]
  EC50: 0.606 µM (active)
[5]
  AC50: 2.58 µM (active)
[6]
  CC50: 6.48 µM (active)

## CCCCn1c(N)c(N(CCOC)C(=O)c2ccc(-c3ccc([N+](=O)[O-])cc3)o2)c(=O)[nH]c1=O
[7]
  EC50: 23.9 µM (inactive)

## CC(NC(=O)Cn1ncc(Cl)c(Cl)c1=O)C12CC3CC(CC(C3)C1)C2 (stereo not given)
[8]
  EC50: 8.55 µM (active)
[4]
  EC50: 0.047 µM (active)
[9]
  EC50: > 32 µM (inactive)
[10]
  IC50: 2.14 µM (active)
[11]
  IC50: 1.07 µM (active)
[12]
  EC50: > 32 µM (inactive)
[13]
  IC50: 6.48 µM (active)
[14]
  EC50: > 31.5 µM (inactive)
[5]
  AC50: 0.441 µM (active)
[15]
  EC50: 6.41 µM (active)
[16]
  IC50: 3.92 µM (active)
[17]
  IC50: 2.63 µM
[18]
  EC50: > 120 µM (not active)
[19]
  EC50: 1.55 µM (active)

## CCc1ccc(S(=O)(=O)NCc2ccc(C(=O)NCCN(Cc3ccccc3)Cc3ccccc3)cc2)cc1
[20]
  IC50: > 32 µM (inactive)
[21]
  IC50: > 20 µM (inactive)
[22]
  IC50: > 32 µM (inactive)
[23]
  IC50: > 32 µM (inactive)

## Cc1cc2cc3c(cc2n2c(SCC(=O)Nc4nc(-c5ccccc5)cs4)nnc12)OCO3
[24]
  EC50: > 32 µM (inactive)
[25]
  EC50: 0.0648 µM (active)
[26]
  IC50: > 32 µM (inactive)
[27]
  IC50: 15.8 µM (inactive)
[28]
  IC50: > 32 µM (inactive)
[29]
  EC50: > 32 µM (inactive)
[30]
  EC50: > 32 µM (inactive)

## N#Cc1c(O)nsc1Nc1ccccc1C(F)(F)F
[31]
  IC50: 56.5 µM (active)
[32]
  IC50: > 50 µM (inactive)
[33]
  IC50: 7.54 µM (active)

Reference: ChEMBL document CHEMBL1201862, “PubChem BioAssay data set” (2004)
